Laboratory results: US20260285857A1, “BICYCLIC AND HETEROCYCLIC AMIDE COMPOUNDS” (priority 2024, published 2026)

Test system: immunoglobulin light chain protein WIL-FL T46L
Assay: Differential scanning fluorimetry (thermal shift) assay
Assay type: binding
Conditions: Table A; temperature shift [Tm]compound-[Tm]vehicle; recombinant WIL-FL T46L

## Cc1cc(N2CC[C@](C)(c3ccccc3)C2)cn2nc(C(=O)NC3CN(CC(=O)O)CC3O)nc12 (some centres unmarked) [Compound 110]
  DSF: ***** (>2.5° C.=*****)

## Cc1cc(N2CC[C@](C)(c3ccccc3)C2)cn2nc(C(=O)NC34CCC(O)(C3)C4)nc12 [Compound 111]
  DSF: ***** (>2.5° C.=*****)

## Cc1cc(N2CC[C@](C)(c3ccccc3)C2)cn2nc(C(=O)NC3CC4(C3)CC(C(=O)O)C4)nc12 (some centres unmarked) [Compound 112]
  DSF: ***** (>2.5° C.=*****)

## Cc1cc(N2CC[C@](C)(c3ccccc3)C2)cn2nc(C(=O)N3CCC4(COC4)C3)nc12 [Compound 113]
  DSF: ***** (>2.5° C.=*****)

## Cc1cc(N2CC[C@](C)(c3ccccc3)C2)cn2nc(C(=O)N(C)[C@@H]3CCNC3)nc12 [Compound 114]
  DSF: ***** (>2.5° C.=*****)

## Cc1cc(N2CC[C@](C)(c3ccccc3)C2)cn2nc(C(=O)N3C[C@@H](O)[C@@H](O)C3)nc12 [Compound 115]
  DSF: ***** (>2.5° C.=*****)

## Cc1cc(N2CC[C@](C)(c3ccccc3)C2)cn2nc(C(=O)NCC3(O)CCOCC3)nc12 [Compound 116]
  DSF: ***** (>2.5° C.=*****)

## Cc1cc(N2CC[C@](C)(c3ccccc3)C2)cn2nc(C(=O)NC3CNCC3O)nc12 (some centres unmarked) [Compound 117]
  DSF: ***** (>2.5° C.=*****)

## Cc1cc(N2CC[C@](C)(c3ccccc3)C2)cn2nc(C(=O)NC3CCOC3)nc12 (some centres unmarked) [Compound 118]
  DSF: ***** (>2.5° C.=*****)

## Cc1cc(N2CC[C@](C)(c3ccccc3)C2)cn2nc(C(=O)NCCN3C[C@H](O)[C@@H](O)C3)nc12 [Compound 119]
  DSF: ***** (>2.5° C.=*****)

## Cc1cc(N2CC[C@](C)(c3ccccc3)C2)cn2nc(C(=O)NCC3(O)CC3)nc12 [Compound 120]
  DSF: ***** (>2.5° C.=*****)

## Cc1cc(N2CC[C@](C)(c3ccccc3)C2)cn2nc(C(=O)N[C@H]3COC[C@@H]3F)nc12 [Compound 121]
  DSF: ***** (>2.5° C.=*****)

## Cc1cc(N2CC[C@](C)(c3ccccc3)C2)cn2nc(C(=O)NCC34COC(C3)C4)nc12 [Compound 122]
  DSF: ***** (>2.5° C.=*****)

## Cc1cc(N2CC[C@](C)(c3ccccc3)C2)cn2nc(C(=O)NC34COC(C(C)(C)O)(C3)C4)nc12 [Compound 123]
  DSF: ***** (>2.5° C.=*****)

## Cc1cc(N2CC[C@](C)(c3ccccc3)C2)cn2nc(C(=O)N3CC4CC3CO4)nc12 (some centres unmarked) [Compound 124]
  DSF: ***** (>2.5° C.=*****)

## COC(=O)[C@]1(C)CCN(C(=O)c2nc3c(C)cc(N4CC[C@](C)(c5ccccc5)C4)cn3n2)C1 [Compound 125]
  DSF: ***** (>2.5° C.=*****)

## Cc1cc(N2CC[C@](C)(c3ccccc3)C2)cn2nc(C(=O)N3CC[C@@](C)(C(=O)O)C3)nc12 [Compound 126]
  DSF: ***** (>2.5° C.=*****)

## Cc1cc(N2CC[C@](C)(c3ccccc3)C2)cn2nc(C(=O)NC34COC(C#N)(C3)C4)nc12 [Compound 127]
  DSF: ***** (>2.5° C.=*****)

## Cc1cc(N2CC[C@](C)(c3ccccc3)C2)cn2nc(C(=O)N3CC(O)C3)nc12 [Compound 128]
  DSF: ***** (>2.5° C.=*****)

## Cc1cc(N2CC[C@](C)(c3ccccc3)C2)cn2nc(C(=O)NC3C4COCC43)nc12 (some centres unmarked) [Compound 129]
  DSF: ***** (>2.5° C.=*****)

## Cc1cc(N2CC[C@](C)(c3ccccc3)C2)cn2nc(C(=O)NCCC(C)(C)O)nc12 [Compound 130]
  DSF: ***** (>2.5° C.=*****)

## Cc1cc(N2CC[C@](C)(c3ccccc3)C2)cn2nc(C(=O)NC3(CO)CCOCC3)nc12 [Compound 131]
  DSF: ***** (>2.5° C.=*****)

## Cc1cc(N2CC[C@](C)(c3ccccc3)C2)cn2nc(C(=O)NC34CC(O)(C3)C4)nc12 [Compound 132]
  DSF: ***** (>2.5° C.=*****)

## Cc1noc([C@@H]2C[C@H](NC(=O)c3nc4c(C)cc(N5CC[C@](C)(c6ccccc6)C5)cn4n3)CN2)n1 [Compound 133]
  DSF: ***** (>2.5° C.=*****)

## Cc1cc(N2CC[C@](C)(c3ccccc3)C2)cn2nc(C(=O)N[C@H]3CNC[C@@H]3C(=O)O)nc12 [Compound 134]
  DSF: ***** (>2.5° C.=*****)

## Cc1cc(N2CC[C@](C)(c3ccccc3)C2)cn2nc(C(=O)N3CCC4NC(=O)CC43)nc12 (some centres unmarked) [Compound 135]
  DSF: ***** (>2.5° C.=*****)

## Cc1cc(N2CC[C@](C)(c3ccccc3)C2)cn2nc(C(=O)NCC(C)(C)C(=O)O)nc12 [Compound 136]
  DSF: ***** (>2.5° C.=*****)

## Cc1cc(N2CC[C@](C)(c3ccccc3)C2)cn2nc(C(N)=O)nc12 [Compound 137]
  DSF: ***** (>2.5° C.=*****)

## COCC(C)(O)CNC(=O)c1nc2c(C)cc(N3CC[C@](C)(c4ccccc4)C3)cn2n1 (some centres unmarked) [Compound 138]
  DSF: ***** (>2.5° C.=*****)

## Cc1cc(N2CC[C@](C)(c3ccccc3)C2)cn2nc(C(=O)N[C@@H](C)CO)nc12 [Compound 139]
  DSF: ***** (>2.5° C.=*****)

## CO[C@@H]1CNC[C@H]1NC(=O)c1nc2c(C)cc(N3CC[C@](C)(c4ccccc4)C3)cn2n1 [Compound 140]
  DSF: ***** (>2.5° C.=*****)

## Cc1cc(N2CC[C@](C)(c3ccccc3)C2)cn2nc(C(=O)NC3COCC3(C)O)nc12 (some centres unmarked) [Compound 141]
  DSF: ***** (>2.5° C.=*****)
